# Test results as given in PMC7181660, “A novel specific PERK activator reduces toxicity and extends survival in Huntington's disease models” (Scientific Reports, 2020).
# How the values were obtained:
# Test in all cases: biochemical
# Type in all cases: biochemical
# panel of 391 kinases [1] = molecular target: panel of 391 kinases (Homo sapiens, UniProt O95835); settings: LATS1, MK-28 1 µM, ATP 1 µM
# panel of 391 kinases [2] = molecular target: panel of 391 kinases (Homo sapiens, UniProt O96013); settings: PAK4, MK-28 1 µM, ATP 1 µM
# panel of 391 kinases [3] = molecular target: panel of 391 kinases (Homo sapiens, UniProt P04049); settings: RAF1, MK-28 1 µM, ATP 1 µM
# panel of 391 kinases [4] = molecular target: panel of 391 kinases (Homo sapiens, UniProt P08069); settings: IGF1R, MK-28 1 µM, ATP 1 µM
# panel of 391 kinases [5] = molecular target: panel of 391 kinases (Homo sapiens, UniProt P29317); settings: EPHA2, MK-28 1 µM, ATP 1 µM
# panel of 391 kinases [6] = molecular target: panel of 391 kinases (Homo sapiens, UniProt P29376); settings: TYK1/LTK, MK-28 1 µM, ATP 1 µM
# panel of 391 kinases [7] = molecular target: panel of 391 kinases (Homo sapiens, UniProt P35626); settings: GRK3, MK-28 1 µM, ATP 1 µM
# panel of 391 kinases [8] = molecular target: panel of 391 kinases (Homo sapiens, UniProt P41743); settings: PKCiota, MK-28 1 µM, ATP 1 µM
# panel of 391 kinases [9] = molecular target: panel of 391 kinases (Homo sapiens, UniProt P43250); settings: GRK6, MK-28 1 µM, ATP 1 µM
# panel of 391 kinases [10] = molecular target: panel of 391 kinases (Homo sapiens, UniProt P53671); settings: LIMK2, MK-28 1 µM, ATP 1 µM
# panel of 391 kinases [11] = molecular target: panel of 391 kinases (Homo sapiens, UniProt P54756); settings: EPHA5, MK-28 1 µM, ATP 1 µM
# panel of 391 kinases [12] = molecular target: panel of 391 kinases (Homo sapiens, UniProt Q12851); settings: GCK/MAP4K2, MK-28 1 µM, ATP 1 µM
# panel of 391 kinases [13] = molecular target: panel of 391 kinases (Homo sapiens, UniProt Q12852); settings: DLK/MAP3K12, MK-28 1 µM, ATP 1 µM
# panel of 391 kinases [14] = molecular target: panel of 391 kinases (Homo sapiens, UniProt Q12866); settings: c-MER, MK-28 1 µM, ATP 1 µM
# panel of 391 kinases [15] = molecular target: panel of 391 kinases (Homo sapiens, UniProt Q13177); settings: PAK2, MK-28 1 µM, ATP 1 µM
# panel of 391 kinases [16] = molecular target: panel of 391 kinases (Homo sapiens, UniProt Q13976); settings: PKG1a, MK-28 1 µM, ATP 1 µM
# panel of 391 kinases [17] = molecular target: panel of 391 kinases (Homo sapiens, UniProt Q15208); settings: STK38/NDR1, MK-28 1 µM, ATP 1 µM
# panel of 391 kinases [18] = molecular target: panel of 391 kinases (Homo sapiens, UniProt Q15418); settings: RSK1, MK-28 1 µM, ATP 1 µM
# panel of 391 kinases [19] = molecular target: panel of 391 kinases (Homo sapiens, UniProt Q16513); settings: PKN2/PRK2, MK-28 1 µM, ATP 1 µM
# panel of 391 kinases [20] = molecular target: panel of 391 kinases (Homo sapiens, UniProt Q32MK0); settings: MYLK3, MK-28 1 µM, ATP 1 µM
# panel of 391 kinases [21] = molecular target: panel of 391 kinases (Homo sapiens, UniProt Q7L7X3); settings: TAOK1, MK-28 1 µM, ATP 1 µM
# panel of 391 kinases [22] = molecular target: panel of 391 kinases (Homo sapiens, UniProt Q8TF76); settings: Haspin, MK-28 1 µM, ATP 1 µM
# panel of 391 kinases [23] = molecular target: panel of 391 kinases (Homo sapiens, UniProt Q96PY6); settings: NEK1, MK-28 1 µM, ATP 1 µM
# panel of 391 kinases [24] = molecular target: panel of 391 kinases (Homo sapiens, UniProt Q9H792); settings: PEAK1, MK-28 1 µM, ATP 1 µM
# panel of 391 kinases [25] = molecular target: panel of 391 kinases (Homo sapiens, UniProt Q9HBH9); settings: MNK2, MK-28 1 µM, ATP 1 µM
# panel of 391 kinases [26] = molecular target: panel of 391 kinases (Homo sapiens, UniProt Q9P1W9); settings: PIM2, MK-28 1 µM, ATP 1 µM
# panel of 391 kinases [27] = molecular target: panel of 391 kinases (Homo sapiens, UniProt Q9Y6E0); settings: MST3/STK24, MK-28 1 µM, ATP 1 µM
# [28] = read-out: % Enzyme Activity (relative to DMSO controls)
compound,measurement,setting,value
CN(/N=C\c1ccc(O)c(O)c1)c1nc(-c2ccccc2)cc(-c2ccccc2)n1 [MK-28],% Enzyme Activity (relative to DMSO controls),panel of 391 kinases [1],99.22%
same,remaining activity at 1 µM,panel of 391 kinases [1]; [28],101%
same,% Enzyme Activity (relative to DMSO controls),panel of 391 kinases [2],97.48%
same,remaining activity at 1 µM,panel of 391 kinases [2]; [28],97.6%
same,% Enzyme Activity (relative to DMSO controls),panel of 391 kinases [3],93.95%
same,remaining activity at 1 µM,panel of 391 kinases [3]; [28],94.3%
same,% Enzyme Activity (relative to DMSO controls),panel of 391 kinases [4],98.39%
same,remaining activity at 1 µM,panel of 391 kinases [4]; [28],100%
same,% Enzyme Activity (relative to DMSO controls),panel of 391 kinases [5],99.61%
same,remaining activity at 1 µM,panel of 391 kinases [5]; [28],100%
same,% Enzyme Activity (relative to DMSO controls),panel of 391 kinases [6],82.78%
same,remaining activity at 1 µM,panel of 391 kinases [6]; [28],84.2%
same,% Enzyme Activity (relative to DMSO controls),panel of 391 kinases [7],99.99%
same,remaining activity at 1 µM,panel of 391 kinases [7]; [28],102%
same,% Enzyme Activity (relative to DMSO controls),panel of 391 kinases [8],105.00%
same,remaining activity at 1 µM,panel of 391 kinases [8]; [28],105%
same,% Enzyme Activity (relative to DMSO controls),panel of 391 kinases [9],102.17%
same,remaining activity at 1 µM,panel of 391 kinases [9]; [28],104%
same,% Enzyme Activity (relative to DMSO controls),panel of 391 kinases [10],94.92%
same,remaining activity at 1 µM,panel of 391 kinases [10]; [28],95.4%
same,% Enzyme Activity (relative to DMSO controls),panel of 391 kinases [11],98.83%
same,remaining activity at 1 µM,panel of 391 kinases [11]; [28],103%
same,% Enzyme Activity (relative to DMSO controls),panel of 391 kinases [12],97.18%
same,remaining activity at 1 µM,panel of 391 kinases [12]; [28],97.2%
same,% Enzyme Activity (relative to DMSO controls),panel of 391 kinases [13],122.20%
same,remaining activity at 1 µM,panel of 391 kinases [13]; [28],124%
same,% Enzyme Activity (relative to DMSO controls),panel of 391 kinases [14],97.57%
same,remaining activity at 1 µM,panel of 391 kinases [14]; [28],98.6%
same,% Enzyme Activity (relative to DMSO controls),panel of 391 kinases [15],99.51%
same,remaining activity at 1 µM,panel of 391 kinases [15]; [28],99.7%
same,% Enzyme Activity (relative to DMSO controls),panel of 391 kinases [16],86.31%
same,remaining activity at 1 µM,panel of 391 kinases [16]; [28],89%
same,% Enzyme Activity (relative to DMSO controls),panel of 391 kinases [17],95.54%
same,remaining activity at 1 µM,panel of 391 kinases [17]; [28],96.8%
same,% Enzyme Activity (relative to DMSO controls),panel of 391 kinases [18],96.73%
same,remaining activity at 1 µM,panel of 391 kinases [18]; [28],96.8%
same,% Enzyme Activity (relative to DMSO controls),panel of 391 kinases [19],111.91%
same,remaining activity at 1 µM,panel of 391 kinases [19]; [28],115%
same,% Enzyme Activity (relative to DMSO controls),panel of 391 kinases [20],104.33%
same,remaining activity at 1 µM,panel of 391 kinases [20]; [28],106%
same,% Enzyme Activity (relative to DMSO controls),panel of 391 kinases [21],103.55%
same,remaining activity at 1 µM,panel of 391 kinases [21]; [28],105%
same,% Enzyme Activity (relative to DMSO controls),panel of 391 kinases [22],102.02%
same,remaining activity at 1 µM,panel of 391 kinases [22]; [28],116%
same,% Enzyme Activity (relative to DMSO controls),panel of 391 kinases [23],92.29%
same,remaining activity at 1 µM,panel of 391 kinases [23]; [28],94.7%
same,% Enzyme Activity (relative to DMSO controls),panel of 391 kinases [24],87.56%
same,remaining activity at 1 µM,panel of 391 kinases [24]; [28],88.6%
same,% Enzyme Activity (relative to DMSO controls),panel of 391 kinases [25],105.57%
same,remaining activity at 1 µM,panel of 391 kinases [25]; [28],114%
same,% Enzyme Activity (relative to DMSO controls),panel of 391 kinases [26],99.13%
same,remaining activity at 1 µM,panel of 391 kinases [26]; [28],102%
same,% Enzyme Activity (relative to DMSO controls),panel of 391 kinases [27],121.45%
same,remaining activity at 1 µM,panel of 391 kinases [27]; [28],122%
